The record followed here is US20020188202A1, “Method of diagnosis and treatment and related compositions and apparatus” (priority 1996, published 2002).

Each structure is given as a SMILES string. “Also recorded” adds a separate entry of the source.

The subject of series [1] is migraine patients with vasospasm on TCD. Kind of series: Migraine patients treated with Nitroglycerine patches, TCD and neurological exam. The series is classed as in vivo, human patients. As for the experimental part: All patients are evaluated with a complete history, physical exam, and neurological exam by a Board Certified Neurologist. All patients have blood work consisting of a CBC with differential count and platelets as well as an SMA-30 obtained. All whiplash related patients underwent a CT or MRI of the brain, EEG and qEEG, B-mode and spectral analysis ultrasound of the subclavian, carotid, and vertebral circulation, and Transcranial Doppler (TCD) examination of the intracranial circulation. In some situations, repetitive Transcranial Doppler examinations are performed on the same patient in the same day. Initially, these tests are performed by maintaining the probe on the patient's head through the course of several hours, but later the technique involves using the same probe, patient position, technician, depth, and cranial window with serial but interrupted exams across the course of the day. In all cases, the highest spectral frequencies are recorded, as well as repeat exams at the same depth and window as the baseline pre-medication windows were obtained. Immediately prior to initial TCD exams, a neurological exam is carried out. At the time of initiation of treatment for the cerebral vasospasm, at which time vasoactive medications are administered after the baseline TCD and neuro exam are obtained, repeat TCD exams are carried out and when medication effects on the intracranial circulation were identified, repeat neurological exams are obtained. In 5 patients, P300 are obtained prior to initiation of treatment and, again, several months later. The same methodology is used in those patients referred for evaluation of possible MS-like syndrome as recognized in the recent global settlement. With these patients, triple evoked potentials, EEG and qEEG, and a vascular evaluation as outlined above is carried out in all patients, and in 11 who decided to attempt treatment with vasoactive drugs, the methodology outlined above for initiation of as in the MVA-related post-concussion syndrome are used. 10 of the 19 MS-like syndrome patients additionally had brain MRI tests performed. […]

For series [2], the system named is adult ADD patients with vasospasm. Kind of series: Attention Deficit Disorder siblings treated with vasodilators, serial TCD and neuropsychological testing. The series is classed as in vivo, human patients. To be noted: male; for right MCA mean flow velocity: baseline 0.86; for left MCA mean flow velocity: baseline 0.92. As for the experimental part:
Both were administered a battery of tests which measured neuropsychological functioning and personality variables.
On referral for neurological evaluation, mild physical and significant objective testing abnormalities were found. […] Both, further, had difficulty performing a Tandem Gait with complete ease. The physical exam was otherwise normal. An EEG and computerized EEG were performed and were abnormal.
Both individuals were treated with vasodilating medications for 10 months and received psychotherapy and vocational counseling. Relaxation and hypnotherapy were also used to develop visualization skills for both recall of successful social and work experiences and to visualize successful outcomes of activities to do.
In serial testing, the […] underwent TCD's on three separate occasions on the same day. […] By the end of the day, […] identified that […] could read, understand and retain news articles and magazine articles. […] could also follow a television show throughout. […] could do neither at the beginning of the day.
On the basis of the objective disorders of flow and the patient's reported and observed improvement during the trial episode of administering medications to decrease the observed vasospasm, we started the sibling on vasodilators. […] This regimen was made up of a low dose Calcium Channel Blocker, and an ACE inhibitor along with low dose Nitroglycerine and a Clonidine patch.

Series [3] deals with patient with migraine, schizophrenic reaction and vasospasm. Description: Case study: psychosis caused by cerebral ischemia, EEG and TCD. Particulars: single patient. The series is classed as in vivo, human patient.
The subject of series [4] is patients with cerebral vasospasm. Kind of series: Vasoactive medications tried on Applicant's patients with vasospasm, monitored by Transcranial Doppler (TCD), exam and symptoms.
Description: As headache was a major complaint of many of Applicant's patients, we tried these medications out including Imitrex (Sumatriptan), IM Toradol (Ketoralac) and other medications under direct monitoring. […] Rather, it was expected that one or another set of medications might help point the way into using specific classes of medications or approaches. Accordingly, each of these patients. equivalent of a large number of patients, were monitored continuously across the day.
With respect to the different monitoring tools, some were more helpful than others. […] The Brain Stem Auditory Evoked Response and other evoked potential tests were very insensitive tools for monitoring, because of the length of time required to perform the test after short-acting medications were given in IM or sublingual or nasal spray administration route. […] These symptoms included not only headache, but also sensations of confusion, balance disorder, abnormal Romberg or Tandem Gait of other neurological abnormalities.
As headache was a major complaint of many of these patients, Applicant tried these medications out including Imitrex (Sumatriptan), IM Toradol (Ketoralac) and other medications under direct monitoring. […] Rather, it was expected that one or another set of medications might help point the way into using specific classes of medications or approaches. Accordingly, each of these patients, equivalent of a large number of patients, is monitored continuously across the day.
With respect to the different monitoring tools, some were more helpful than others. […] The Brain Stem Auditory Evoked Response and other evoked potential tests were very insensitive tools for monitoring, because of the length of time required to perform the test after short-acting medications were given in IM or sublingual or nasal spray administration route.
Where [5] appears, read: second TCD of the day after repetitive applications.
[6] abbreviates: third TCD of the day after repetitive applications.
[7] abbreviates: human, in vivo, listed as Nitroglycerine.

On to `O=[N+]([O-])OCC(CO[N+](=O)[O-])O[N+](=O)[O-]` [Nitroglycerin], for which the “follow-up TCD at the end of application of the patch” value in series [1] (3 patients) was “confirmed reduction of the vasospasm”. Further, in series [1] (human, in vivo), the “lower extremity hyper-reflexia, Rhomberg and tandem gait abnormalities” value is on record as “all resolved”. Besides, the headache result in series [1] (patches applied for 10 minutes to 1 hour, 5 patients) is on record as “headache resolved”. Further, in series [2] (same day serial testing), the “concentration (self-assessment)” value is recorded as “significant improvement in concentration” and the “neurological exam (balance testing)” value is on record as “exam progressively normalized”. Moreover, in series [2] (setting [5]), the “right MCA mean flow velocity” value amounted to 0.79 meters/second and the “left MCA mean flow velocity” value amounted to 0.84 meters/second. Moreover, in series [2] (setting [6]), the “right MCA mean flow velocity” value is given as 0.72 meters/second and the “left MCA mean flow velocity” value came out at 0.79 meters/second. The headaches / migraines entry in series [3] is “complete resolution of their daily headaches; also recorded: headaches completely resolved as did memory disturbances, concentration problems and emotional lability; also recorded: responded promptly”. In series [4] (human, in vivo), the “effect on vessels seen on TCD / ultrasound (vasoconstriction or dilatation)” value is recorded as “resulted in vascular dilatation”; the headache result is on record as “improvement in the patient's headache”; the “neurological exam and other neurological abnormalities” value is “improvement of any other neurological abnormalities”. Further, in series [4] (setting [7]), the headache result is recorded as “alleviated or treated the headache”; the “neurological exam and other neurological abnormalities” value was “clinical and neurological exam improvement”. The “transient supersensitivity (transient worsening of the vasospasm) on early administration” value in series [4] (witnessed on TCD or clinically) is recorded as “can give transient severe vasoconstrictive episodes”.
